Results reported in patent US20240366809A1, “INHIBITOR OF PROSTATE SPECIFIC MEMBRANE ANTIGEN AND PHARMACEUTICAL USE THEREOF” (TIANJIN HENGRUI MEDICINE CO., LTD., priority 2021, published 2024).

Tests used:
[1] = target: T1, rhPSMA (Homo sapiens (Human), UniProt Q04609); assay: Tests for inhibitory activity against PSMA (Test Example 1); type: biochemical; details: rhPSMA 50 ng/well, substrate N-Acetyl-Asp-Glu, 37° C. 1 h
Experimental: • 1. Multifunctional microplate reader (SPARK, TECAN) • 2. rhPSMA (R&D, 4234-ZN) • 3. N-Acetyl-Asp-Glu (Sigma, A5930) • 4. OPA (Sigma, P0657)
PSMA inhibitors can bind to the enzyme PSMA to prevent the enzyme PSMA from decomposing the substrate N-Acetyl-Asp-Glu. In this experiment, the extent to which the substrate was decomposed and the resulting ultraviolet absorption changes were measured to evaluate the capacities of the PSMA inhibitors to bind to the enzyme PSMA, and the activity of the compounds was evaluated with IC50 values.
(§1) Buffer 1 (50 mM HEPES, 0.1 M NaCl, pH 7.5) was used to prepare a 0.4 μg/mL rhPSMA solution and a 40 μM solution of the substrate N-Acetyl-Asp-Glu. rhPSMA was mixed with the small molecules to be tested in a 96-well plate, with a constant rhPSMA content of 50 ng/well maintained. Meanwhile, the small molecules were step-wise diluted to final concentrations of 1 μM, 100 nM, 33.3 nM, 11.1 nM, 3.7 nM, 1.2 nM, 0.41 nM, 0.137 nM, 0.045 nM, and 0 nM. In addition, a positive control was set up using PSMA-617. The rhPSMA-small molecules were taken at 40 μL/well and well mixed with the 40 μM solution of the substrate N-Acetyl-Asp-Glu (40 μL/well). The mixtures were incubated at 37° C. in the dark for 1 h, were heated at 70° C. for 5 min to quench the reactions, and were cooled to room temperature. Buffer 2 (0.2 M NaOH, 0.1% beta-Mercaptoethanol) was used to prepare a 15 mM OPA solution. The OPA solution was added to the reaction systems at 80 μL/well and well mixed, and then the plate was incubated at room temperature for 10 min. The mixtures were taken at 100 μL/well and added to a 96-well Flat Black. With the excitation wavelength set to 330 nm and the emission wavelength to 465 nm, the intensity of signals was measured. IC50 values were obtained from dose-response curves.
The capacities of the compounds of the present disclosure to bind to the enzyme GCPII can be measured through the assay described above.

[2] = target: T1, rhPSMA; assay: Affinity assays using enzyme activity method (Test Example 2); type: biochemical; details: for Ratio to PSMA-617: ratio of IC50 values; for IC50: rhPSMA 50 ng/well, substrate N-Acetyl-Asp-Glu, 37° C. 1 h
Experimental: as §1

T1 sequence (Q04609 44-750): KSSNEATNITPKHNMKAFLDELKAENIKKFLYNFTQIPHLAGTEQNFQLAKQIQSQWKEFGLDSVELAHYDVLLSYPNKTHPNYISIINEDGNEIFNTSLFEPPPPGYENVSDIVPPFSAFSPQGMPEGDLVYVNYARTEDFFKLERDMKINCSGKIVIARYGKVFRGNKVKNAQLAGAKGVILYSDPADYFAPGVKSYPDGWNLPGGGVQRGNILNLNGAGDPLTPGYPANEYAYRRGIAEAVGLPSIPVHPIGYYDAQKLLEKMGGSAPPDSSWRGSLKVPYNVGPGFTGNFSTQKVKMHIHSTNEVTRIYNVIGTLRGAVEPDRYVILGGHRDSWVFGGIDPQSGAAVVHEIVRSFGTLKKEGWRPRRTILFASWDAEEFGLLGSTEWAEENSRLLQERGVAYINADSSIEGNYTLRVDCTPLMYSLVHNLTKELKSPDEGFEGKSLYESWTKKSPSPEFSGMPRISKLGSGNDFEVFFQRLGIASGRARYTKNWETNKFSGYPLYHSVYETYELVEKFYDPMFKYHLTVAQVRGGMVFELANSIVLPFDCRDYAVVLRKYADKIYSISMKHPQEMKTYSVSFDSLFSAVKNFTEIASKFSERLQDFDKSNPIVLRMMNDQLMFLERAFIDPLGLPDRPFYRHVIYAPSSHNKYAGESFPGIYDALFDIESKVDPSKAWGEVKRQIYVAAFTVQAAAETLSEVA

Row | IC50 [1] [nM] | Ratio to PSMA-617 [2] | IC50 [2] [nM] | SMILES | affinity, comparison in words ([2]; enzyme activity experiment, FIG. 1)
1 | 2.42 | – | – | NCc1ccc(C(=O)Nc2cccc(C(=O)NCCCC[C@H](NC(=O)N[C@@H](CCC(=O)O)C(=O)O)C(=O)O)n2)cc1 | –
2 | – | 0.74 | 1.23 | O=C(O)CC[C@H](NC(=O)N[C@@H](CCCCNC(=O)[C@H](Cc1ccc2ccccc2c1)NC(=O)[C@H]1CC[C@]2(CC1)CN(C(=O)CN1CCN(CC(=O)O)CCN(CC(=O)O)CCN(CC(=O)O)CC1)CCO2)C(=O)O)C(=O)O [Example 9, (((S)-1-carboxy-5-((S)-3-(2-naphthyl)-2-((6S,9r)-4-(2-(4,7,10-tris(carboxymethyl)-1,4,7,10-tetraazacyclododecanyl)acetyl)-1-oxa-4-azaspiro[5.5]undecane-9-carboxamido)propanamido)pentyl)carbamoyl)-L-glutamic acid] | better affinity than compound x of Example 11
3 | – | 7.85 | 13 | O=C(O)CC[C@H](NC(=O)N[C@@H](CCCCNC(=O)[C@H](Cc1ccc2ccccc2c1)NC(=O)[C@H]1CC[C@@]2(CC1)CN(C(=O)CN1CCN(CC(=O)O)CCN(CC(=O)O)CCN(CC(=O)O)CC1)CCO2)C(=O)O)C(=O)O [Example 11, (((S)-1-carboxy-5-((S)-3-(2-naphthyl)-2-((6R,9s)-4-(2-(4,7,10-tris(carboxymethyl)-1,4,7,10-tetraazacyclododecanyl)acetyl)-1-oxa-4-azaspiro[5.5]undecane-9-carboxamido)propanamido)pentyl)carbamoyl)-L-glutamic acid] | –
